This passage reports LC50 results from ChEMBL document CHEMBL1146448, “Cavernosolide, a New Sesterterpene from a Tyrrhenian Sponge” (J Nat Prod, 1997).

≈ marks a conversion by molar mass, not a printed value.

Data set [1] is described as follows: Toxicity in Artemia salina. Type of data set: organism-based. As to conditions: in vivo.
Data set [2] is described as follows: Toxicity in Gambusia affinis. Format: organism-based. The note with it: in vivo.

For orientation: LC50 means the concentration that kills 50% of the test population.

For `CC(=O)O[C@H]1O[C@@H](C2=CC(=O)O[C@@H]2O)C[C@@H]2[C@@H]1CC[C@H]1[C@@]2(C)CC[C@H]2C(C)(C)CCC[C@]12C` [CAVERNOSOLIDE], the LC50 in data set [1] was 0.37 µg/mL (≈ 0.803 µM); in data set [2] it was 0.75 µg/mL (≈ 1.63 µM).
